How the values were obtained:
late watergrass = test: Test Example 2: herbicidal activity, application during weed generation under submerged conditions (Table 17, symbol A); format: in vivo, late watergrass (Echinochloa oryzicola); conditions: AAH 178 g/ha; application during weed generation, submerged conditions
Procedure, shortened: (§1)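 Wagner pot, alluvial soil, 4 cm flood; mixed sowing of all species; greenhouse 25° C.–30° C. Emulsifiable formulation, water-diluted to predetermined dose, applied to paddy water at 1–2 leaf stage. Effect rated at 3 wk using the earlier test's scoring criteria.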

Japanese bulrush = test: Test Example 2: herbicidal activity, application during weed generation under submerged conditions (Table 17, symbol B); format: in vivo, Japanese bulrush (Schoenoplectus juncoides); conditions: AAH 178 g/ha; application during weed generation, submerged conditions
Procedure, shortened: as §1

oval-leafed pondweed = test: Test Example 2: herbicidal activity, application during weed generation under submerged conditions (Table 17, symbol C); format: in vivo, oval-leafed pondweed (Monochoria vaginalis); conditions: AAH 178 g/ha; application during weed generation, submerged conditions
Procedure, shortened: as §1

barnyard grass [1] = test: Test Example 3: herbicidal effect by foliage application, Wagner pot (Table 18, symbol H); format: in vivo, barnyard grass (Echinochloa crus-galli); conditions: 178 g/ha
Procedure, shortened: (§2)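 Plants were sown in alluvial soil held under 0.1–0.5 cm standing water and grown 14 days in a greenhouse at 25–30 °C. An emulsifiable formulation, water-diluted to the set dose, was then sprayed onto the foliage, and effects were scored three weeks later using previously defined criteria.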

Chinese sprangletop = test: Test Example 3: herbicidal effect by foliage application, Wagner pot (Table 18, symbol D); format: in vivo, chinese sprangletop (Leptochloa chinensis); conditions: 178 g/ha
Procedure, shortened: as §2

rice flat sedge = test: Test Example 3: herbicidal effect by foliage application, Wagner pot (Table 18, symbol E); format: in vivo, rice flat sedge (Cyperus iria); conditions: 178 g/ha
Procedure, shortened: as §2

southern crabgrass [2] = test: Test Example 4: herbicidal effect by soil treatment (Table 19, symbol F); format: in vivo, southern crabgrass (Digitaria ciliaris); conditions: AAH 178 g/ha
Procedure, shortened: (§3)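 Herbicidal effect was rated 3 weeks after treatment, using the scoring criteria of an earlier test. The compound, formulated as an emulsion and diluted in water to a set herbicide amount, had been sprayed uniformly on soil over freshly sown seeds. Growth took place in a greenhouse at 25° C. to 30° C.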

green foxtail [3] = test: Test Example 4: herbicidal effect by soil treatment (Table 19, symbol G); format: in vivo, green foxtail (Setaria viridis); conditions: AAH 178 g/ha
Procedure, shortened: as §3

barnyard grass [4] = test: Test Example 4: herbicidal effect by soil treatment (Table 19, symbol H); format: in vivo, barnyard grass (Echinochloa crus-galli); conditions: AAH 178 g/ha
Procedure, shortened: as §3

wild oat [5] = test: Test Example 4: herbicidal effect by soil treatment (Table 19, symbol I); format: in vivo, wild oat (Avena fatua); conditions: AAH 178 g/ha
Procedure, shortened: as §3

blackgrass [6] = test: Test Example 4: herbicidal effect by soil treatment (Table 19, symbol J); format: in vivo, blackgrass (Alopecurus myosuroides); conditions: AAH 178 g/ha
Procedure, shortened: as §3

Italian ryegrass [7] = test: Test Example 4: herbicidal effect by soil treatment (Table 19, symbol K); format: in vivo, Italian ryegrass (Lolium multiflorum); conditions: AAH 178 g/ha
Procedure, shortened: as §3

windgrass [8] = test: Test Example 4: herbicidal effect by soil treatment (Table 19, symbol L); format: in vivo, windgrass (Apera spica-venti); conditions: AAH 178 g/ha
Procedure, shortened: as §3

velvetleaf [9] = test: Test Example 4: herbicidal effect by soil treatment (Table 19, symbol M); format: in vivo, velvetleaf (Abutilon theophrasti); conditions: AAH 178 g/ha
Procedure, shortened: as §3

redroot pigweed = test: Test Example 4: herbicidal effect by soil treatment (Table 19, symbol N); format: in vivo, redroot pigweed (Amaranthus retroflexus); conditions: AAH 178 g/ha
Procedure, shortened: as §3

lambsquarters [10] = test: Test Example 4: herbicidal effect by soil treatment (Table 19, symbol O); format: in vivo, lambsquarters (Chenopodium album); conditions: AAH 178 g/ha
Procedure, shortened: as §3

chickweed = test: Test Example 4: herbicidal effect by soil treatment (Table 19, symbol P); format: in vivo, common chickweed (Stellaria media); conditions: AAH 178 g/ha
Procedure, shortened: as §3

false cleavers = test: Test Example 4: herbicidal effect by soil treatment (Table 19, symbol Q); format: in vivo, false cleavers (Galium spurium); conditions: AAH 178 g/ha
Procedure, shortened: as §3

persian speedwell [11] = test: Test Example 4: herbicidal effect by soil treatment (Table 19, symbol R); format: in vivo, Persian speedwell (Veronica persica); conditions: AAH 178 g/ha
Procedure, shortened: as §3

southern crabgrass [12] = test: Test Example 5: herbicidal effect by foliage application, plastic box (Table 20, symbol F); format: in vivo, southern crabgrass (Digitaria ciliaris); conditions: foliage application, 178 g/ha, 3 weeks after application
Procedure, shortened: (§4)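 Foliar spray test: emulsion formulation diluted in water to a set application rate, sprayed onto 14-day-old plants raised in diluvial soil at 25° C to 30° C under glass. Both herbicidal effect and crop effect rated visually three weeks later.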

green foxtail [13] = test: Test Example 5: herbicidal effect by foliage application, plastic box (Table 20, symbol G); format: in vivo, green foxtail (Setaria viridis); conditions: foliage application, 178 g/ha, 3 weeks after application
Procedure, shortened: as §4

barnyard grass [14] = test: Test Example 5: herbicidal effect by foliage application, plastic box (Table 20, symbol H); format: in vivo, barnyard grass (Echinochloa crus-galli); conditions: foliage application, 178 g/ha, 3 weeks after application
Procedure, shortened: as §4

wild oat [15] = test: Test Example 5: herbicidal effect by foliage application, plastic box (Table 20, symbol I); format: in vivo, wild oat (Avena fatua); conditions: foliage application, 178 g/ha, 3 weeks after application
Procedure, shortened: as §4

blackgrass [16] = test: Test Example 5: herbicidal effect by foliage application, plastic box (Table 20, symbol J); format: in vivo, blackgrass (Alopecurus myosuroides); conditions: foliage application, 178 g/ha, 3 weeks after application
Procedure, shortened: as §4

Italian ryegrass [17] = test: Test Example 5: herbicidal effect by foliage application, plastic box (Table 20, symbol K); format: in vivo, Italian ryegrass (Lolium multiflorum); conditions: foliage application, 178 g/ha, 3 weeks after application
Procedure, shortened: as §4

windgrass [18] = test: Test Example 5: herbicidal effect by foliage application, plastic box (Table 20, symbol L); format: in vivo, windgrass (Apera spica-venti); conditions: foliage application, 178 g/ha, 3 weeks after application
Procedure, shortened: as §4

velvetleaf [19] = test: Test Example 5: herbicidal effect by foliage application, plastic box (Table 20, symbol M); format: in vivo, velvetleaf (Abutilon theophrasti); conditions: foliage application, 178 g/ha, 3 weeks after application
Procedure, shortened: as §4

lambsquarters [20] = test: Test Example 5: herbicidal effect by foliage application, plastic box (Table 20, symbol O); format: in vivo, lambsquarters (Chenopodium album); conditions: foliage application, 178 g/ha, 3 weeks after application
Procedure, shortened: as §4

persian speedwell [21] = test: Test Example 5: herbicidal effect by foliage application, plastic box (Table 20, symbol R); format: in vivo, Persian speedwell (Veronica persica); conditions: foliage application, 178 g/ha, 3 weeks after application
Procedure, shortened: as §4

SMILES: COCCOCOc1c(C)nn(C)c(=O)c1-c1c(-c2ccc(OC(F)F)cc2)sc2ccccc12 [1-202]
- herbicidal effect rating, A: late watergrass (late watergrass): 2 (Herbicidal rate of 20% or more and less than 40%)
- herbicidal effect rating, B: Japanese bulrush (Japanese bulrush): 3 (Herbicidal rate of 40% or more and less than 70%)
- herbicidal effect rating, C: oval-leafed pondweed (oval-leafed pondweed): 0 (Herbicidal rate of 5% or less (almost no effect))
- herbicidal effect on H (barnyard grass), rating 0-5 (barnyard grass [1]): 5 (Herbicidal rate of 90% or more (almost completely withered))
- herbicidal effect on D (Chinese sprangletop), rating 0-5 (Chinese sprangletop): 3 (Herbicidal rate of 40% or more and less than 70%)
- herbicidal effect on E (rice flat sedge), rating 0-5 (rice flat sedge): 5 (Herbicidal rate of 90% or more (almost completely withered))
- F: southern crabgrass, herbicidal effect rating (southern crabgrass [2]): 0 (Herbicidal rate of 5% or less (almost no effect))
- G: green foxtail, herbicidal effect rating (green foxtail [3]): 4 (Herbicidal rate of 70% or more and less than 90%)
- H: barnyard grass, herbicidal effect rating (barnyard grass [4]): 3 (Herbicidal rate of 40% or more and less than 70%)
- I: wild oat, herbicidal effect rating (wild oat [5]): 0 (Herbicidal rate of 5% or less (almost no effect))
- J: blackgrass, herbicidal effect rating (blackgrass [6]): 0 (Herbicidal rate of 5% or less (almost no effect))
- K: Italian ryegrass, herbicidal effect rating (Italian ryegrass [7]): 4 (Herbicidal rate of 70% or more and less than 90%)
- L: windgrass, herbicidal effect rating (windgrass [8]): 0 (Herbicidal rate of 5% or less (almost no effect))
- M: velvetleaf, herbicidal effect rating (velvetleaf [9]): 2 (Herbicidal rate of 20% or more and less than 40%)
- N: redroot pigweed, herbicidal effect rating (redroot pigweed): 5 (Herbicidal rate of 90% or more (almost completely withered))
- O: lambsquarters, herbicidal effect rating (lambsquarters [10]): 4 (Herbicidal rate of 70% or more and less than 90%)
- P: chickweed, herbicidal effect rating (chickweed): 3 (Herbicidal rate of 40% or more and less than 70%)
- Q: false cleavers, herbicidal effect rating (false cleavers): 3 (Herbicidal rate of 40% or more and less than 70%)
- R: persian speedwell, herbicidal effect rating (persian speedwell [11]): 4 (Herbicidal rate of 70% or more and less than 90%)
- effect on southern crabgrass (F) (southern crabgrass [12]): 1 (Herbicidal rate of 5% or more and less than 20%)
- effect on green foxtail (G) (green foxtail [13]): 5 (Herbicidal rate of 90% or more (almost completely withered))
- effect on barnyard grass (H) (barnyard grass [14]): 4 (Herbicidal rate of 70% or more and less than 90%)
- effect on wild oat (I) (wild oat [15]): 0 (Herbicidal rate of 5% or less (almost no effect))
- effect on blackgrass (J) (blackgrass [16]): 3 (Herbicidal rate of 40% or more and less than 70%)
- effect on Italian ryegrass (K) (Italian ryegrass [17]): 5 (Herbicidal rate of 90% or more (almost completely withered))
- effect on windgrass (L) (windgrass [18]): 0 (Herbicidal rate of 5% or less (almost no effect))
- effect on velvetleaf (M) (velvetleaf [19]): 5 (Herbicidal rate of 90% or more (almost completely withered))
- effect on lambsquarters (O) (lambsquarters [20]): 5 (Herbicidal rate of 90% or more (almost completely withered))
- effect on persian speedwell (R) (persian speedwell [21]): 5 (Herbicidal rate of 90% or more (almost completely withered))
